Counter-ions that a name gives are not always drawn.
The molecules below were run against T1, recombinant human GSK3β (Homo sapiens, UniProt P49841) (assay: GSK3β Scintillation Proximity Assay (ATP competition)). Conditions: inhibition constant from ATP competition, 10 inhibitor concentrations in duplicate; ATP 1 μM; Km of ATP 20 μM.
T1 construct: purchased Dundee University, UK
Assay type: biochemical
Procedure: Determination of ATP competition in Scintillation Proximity GSK3β Assay.
GSK3β Scintillation Proximity Assay.
The competition experiments were carried out in duplicate with 10 different concentrations of the inhibitors in clear-bottom microtiter plates (Wallac, Finland). A biotinylated peptide substrate, Biotin-Ala-Ala-Glu-Glu-Leu-Asp-Ser-Arg-Ala-Gly-Ser(PO3H2)-Pro-Gln-Leu (AstraZeneca, Lund), was added at a final concentration of 1 μM in an assay buffer containing 1 mU recombinant human GSK3β (Dundee University, UK), 12 mM morpholinepropanesulfonic acid (MOPS), pH 7.0, 0.3 mM EDTA, 0.01% β-mercaptorethanol, 0.004% Brij 35 (a […] detergent), 0.5% glycerol and 0.5 μg BSA/25 μl. The reaction was initiated by the addition of 0.04 μCi [γ-^33P]ATP (Amersham, UK) and unlabelled ATP at a final concentration of 1 μM and assay volume of 25 μl. After incubation for 20 minutes at room temperature, each reaction was terminated by the addition of 25 μl stop solution containing 5 mM EDTA, 50 μM ATP, 0.1% Triton X-100 and 0.25 mg streptavidin coated Scintillation Proximity Assay (SPA) beads (Amersham, UK). After 6 hours the radioactivity was determined in a liquid scintillation counter (1450 MicroBeta Trilux, Wallac). The inhibition curves were analysed by non-linear regression using GraphPad Prism, USA. The Km value of ATP for GSK30, used to calculate the inhibition constants (Ki) of the various compounds, was 20 μM.

T1 sequence (P49841 whole entry): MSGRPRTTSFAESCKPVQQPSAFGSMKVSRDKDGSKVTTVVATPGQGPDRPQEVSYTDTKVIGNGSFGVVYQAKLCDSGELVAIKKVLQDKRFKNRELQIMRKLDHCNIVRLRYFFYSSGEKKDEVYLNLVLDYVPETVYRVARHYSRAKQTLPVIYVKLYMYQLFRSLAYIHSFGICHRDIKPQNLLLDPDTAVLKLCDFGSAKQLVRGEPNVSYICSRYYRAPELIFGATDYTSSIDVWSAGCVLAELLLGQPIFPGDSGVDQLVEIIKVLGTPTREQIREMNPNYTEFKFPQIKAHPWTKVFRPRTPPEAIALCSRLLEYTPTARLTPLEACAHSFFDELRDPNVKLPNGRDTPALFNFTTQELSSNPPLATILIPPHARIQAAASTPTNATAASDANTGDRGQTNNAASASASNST

| Ki [nM] | SMILES |
| --- | --- |
| 126 | Cc1ncc(-c2nc(Nc3ccc(CN4CCN(C)CC4)cc3)ncc2F)n1C [Example 29, 4-(1,2-Dimethyl-1H-imidazol-5-yl)-5-fluoro-N-{4-[(4-methylpiperazin-1-yl)methyl]phenyl}pyrimidin-2-amine hydrochloride] |
| 14 | Cc1ncc(-c2nc(Nc3ccc(C(=O)N4CCN(C)CC4)cc3)ncc2F)n1C1CCCCC1 [Example 17, 4-(1-Cyclohexyl-2-methyl-1H-imidazol-5-yl)-5-fluoro-N-{4-[(4-methylpiperazin-1-yl)carbonyl]phenyl}pyrimidin-2-amine hydrochloride] |
| 22 | Cc1ncc(-c2nc(Nc3cccc(S(C)(=O)=O)c3)ncc2F)n1C1CCOCC1 [Example 22, 5-Fluoro-N-[3-(methylsulfonyl)phenyl]-4-[2-methyl-1-(tetrahydro-2H-pyran-4-yl)-1H-imidazol-5-yl]pyrimidin-2-amine hydrochloride] |
| 10 | COc1cc(Nc2ncc(F)c(-c3cnc(C)n3C)n2)cc(C(F)(F)F)c1 [Example 1, 4-(1,2-Dimethyl-1H-imidazol-5-yl)-5-fluoro-N-[3-methoxy-5-(trifluoromethyl)phenyl]pyrimidin-2-amine] |
